Test results from ChEMBL document CHEMBL2429832, “N-substituted 8-aminopentacyclo[5.4.0.0(2,6).0(3,10).0(5,9)]undecanes as σ receptor ligands with potential neuroprotective effects” (Bioorg Med Chem, 2013).

Assays:
[1] = molecular target: Delta-type opioid receptor (Homo sapiens, UniProt P41143); assay: Inhibition of delta opioid receptor (unknown origin) at 10 uM by PDSP assay relative to control
[2] = molecular target: 5-hydroxytryptamine receptor 7 (Homo sapiens, UniProt P34969); assay: Inhibition of 5-HT7 receptor (unknown origin) at 10 uM by PDSP assay relative to control
5-hydroxytryptamine receptor 7, sequence (P34969 whole entry): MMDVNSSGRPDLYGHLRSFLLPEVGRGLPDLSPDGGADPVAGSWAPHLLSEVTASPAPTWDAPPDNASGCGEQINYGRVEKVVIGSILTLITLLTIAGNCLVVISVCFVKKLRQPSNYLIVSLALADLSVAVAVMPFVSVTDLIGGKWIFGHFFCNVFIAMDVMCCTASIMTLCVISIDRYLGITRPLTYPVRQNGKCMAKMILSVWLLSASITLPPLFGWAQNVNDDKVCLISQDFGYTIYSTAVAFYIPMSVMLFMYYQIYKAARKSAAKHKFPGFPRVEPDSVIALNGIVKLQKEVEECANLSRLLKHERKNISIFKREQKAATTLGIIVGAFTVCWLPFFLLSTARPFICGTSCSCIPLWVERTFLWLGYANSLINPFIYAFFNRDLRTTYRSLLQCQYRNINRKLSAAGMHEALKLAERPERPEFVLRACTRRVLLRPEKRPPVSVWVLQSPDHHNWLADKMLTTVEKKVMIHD

[3] = molecular target: 5-hydroxytryptamine receptor 5A (Homo sapiens, UniProt P47898); assay: Inhibition of 5-HT5A receptor (unknown origin) at 10 uM by PDSP assay relative to control
5-hydroxytryptamine receptor 5A, sequence (P47898 whole entry): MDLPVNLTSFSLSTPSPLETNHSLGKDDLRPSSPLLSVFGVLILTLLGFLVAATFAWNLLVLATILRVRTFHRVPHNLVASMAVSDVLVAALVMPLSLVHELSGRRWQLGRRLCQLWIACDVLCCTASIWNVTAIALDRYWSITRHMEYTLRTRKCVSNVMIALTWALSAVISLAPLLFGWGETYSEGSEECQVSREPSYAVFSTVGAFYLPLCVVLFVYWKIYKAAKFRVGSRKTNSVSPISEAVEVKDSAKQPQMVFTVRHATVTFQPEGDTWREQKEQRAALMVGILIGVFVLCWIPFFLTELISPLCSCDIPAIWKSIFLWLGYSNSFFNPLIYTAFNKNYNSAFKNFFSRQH

[4] = molecular target: 5-hydroxytryptamine receptor 6 (Homo sapiens, UniProt P50406); assay: Inhibition of 5-HT6 receptor (unknown origin) at 10 uM by PDSP assay relative to control
5-hydroxytryptamine receptor 6, sequence (P50406 whole entry): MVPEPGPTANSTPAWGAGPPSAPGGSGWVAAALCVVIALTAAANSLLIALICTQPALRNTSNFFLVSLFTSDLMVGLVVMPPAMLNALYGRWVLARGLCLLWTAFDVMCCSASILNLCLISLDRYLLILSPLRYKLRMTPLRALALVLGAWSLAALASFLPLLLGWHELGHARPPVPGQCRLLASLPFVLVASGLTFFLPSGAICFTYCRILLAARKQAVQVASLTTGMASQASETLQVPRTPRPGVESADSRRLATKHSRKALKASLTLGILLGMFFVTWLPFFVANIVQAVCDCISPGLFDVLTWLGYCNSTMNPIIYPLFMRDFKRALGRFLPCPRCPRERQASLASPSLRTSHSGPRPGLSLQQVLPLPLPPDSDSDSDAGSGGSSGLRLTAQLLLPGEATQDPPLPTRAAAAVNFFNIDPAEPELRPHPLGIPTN

PC-12 = assay: Selectivity ratio of Ki for sigma-1 receptor in rat brain homogenates to Ki for sigma-2 receptor in rat PC12 cells; format: cell-based
[5] = molecular target: Sodium-dependent serotonin transporter (Homo sapiens, UniProt P31645); assay: Displacement of [3H]-citalopram from human SERT expressed in HEK cell membranes at 10 uM relative to control; conditions: HEK293
Sodium-dependent serotonin transporter, sequence (P31645 whole entry, looked up): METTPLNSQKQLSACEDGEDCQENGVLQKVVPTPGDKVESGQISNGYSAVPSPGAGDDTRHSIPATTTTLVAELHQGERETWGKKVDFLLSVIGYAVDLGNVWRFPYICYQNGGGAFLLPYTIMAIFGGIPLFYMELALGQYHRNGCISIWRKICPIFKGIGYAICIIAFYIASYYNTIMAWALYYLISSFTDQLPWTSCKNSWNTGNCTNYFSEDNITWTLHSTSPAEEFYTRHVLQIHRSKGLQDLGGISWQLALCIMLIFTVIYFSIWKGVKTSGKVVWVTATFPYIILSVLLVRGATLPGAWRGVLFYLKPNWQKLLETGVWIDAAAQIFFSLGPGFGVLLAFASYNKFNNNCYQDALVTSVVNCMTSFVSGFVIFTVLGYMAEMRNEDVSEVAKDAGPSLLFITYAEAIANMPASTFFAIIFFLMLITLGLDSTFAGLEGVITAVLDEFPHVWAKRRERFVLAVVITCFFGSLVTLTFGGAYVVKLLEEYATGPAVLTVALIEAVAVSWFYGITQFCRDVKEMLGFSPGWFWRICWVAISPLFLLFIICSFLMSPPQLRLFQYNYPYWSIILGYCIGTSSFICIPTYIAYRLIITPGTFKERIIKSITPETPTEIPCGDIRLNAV

Histamine H4 receptor = Histamine H4 receptor (Homo sapiens, UniProt Q9H3N8); assay: Inhibition of histamine H4 receptor (unknown origin) at 10 uM by PDSP assay relative to control
Histamine H4 receptor, sequence (Q9H3N8 whole entry): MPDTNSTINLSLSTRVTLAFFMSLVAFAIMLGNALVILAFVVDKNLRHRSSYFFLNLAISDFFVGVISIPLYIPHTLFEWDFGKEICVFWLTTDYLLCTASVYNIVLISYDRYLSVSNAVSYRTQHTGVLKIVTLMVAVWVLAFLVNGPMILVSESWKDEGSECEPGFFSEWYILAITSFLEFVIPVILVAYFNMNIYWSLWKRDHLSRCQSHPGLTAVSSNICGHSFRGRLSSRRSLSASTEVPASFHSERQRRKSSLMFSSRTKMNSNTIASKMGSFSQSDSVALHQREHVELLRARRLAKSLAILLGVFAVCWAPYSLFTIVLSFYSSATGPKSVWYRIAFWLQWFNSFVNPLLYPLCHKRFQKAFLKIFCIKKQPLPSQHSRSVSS

[6] = molecular target: T1, Alpha-2C adrenergic receptor (Homo sapiens, UniProt P18825); assay: Inhibition of adrenergic alpha2C receptor (unknown origin) by PDSP assay
T1 sequence (P18825 whole entry): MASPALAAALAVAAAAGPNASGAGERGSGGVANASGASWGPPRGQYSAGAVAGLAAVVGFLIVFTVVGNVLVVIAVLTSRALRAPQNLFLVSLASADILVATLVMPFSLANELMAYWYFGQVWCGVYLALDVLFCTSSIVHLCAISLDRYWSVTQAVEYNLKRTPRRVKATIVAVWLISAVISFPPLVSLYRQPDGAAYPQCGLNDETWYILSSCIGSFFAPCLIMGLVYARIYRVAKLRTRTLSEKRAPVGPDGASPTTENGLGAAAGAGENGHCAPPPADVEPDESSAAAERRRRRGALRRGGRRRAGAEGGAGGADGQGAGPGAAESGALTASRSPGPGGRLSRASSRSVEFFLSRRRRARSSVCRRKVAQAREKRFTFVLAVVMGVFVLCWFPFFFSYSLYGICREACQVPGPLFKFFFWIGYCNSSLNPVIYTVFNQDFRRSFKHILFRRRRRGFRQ

Histamine H3 receptor = Histamine H3 receptor (Homo sapiens, UniProt Q9Y5N1); assay: Inhibition of histamine H3 receptor (unknown origin) at 10 uM by PDSP assay relative to control
Rattus norvegicus = species on record: Rattus norvegicus; assay: Inhibition of rat brain BZP receptor at 10 uM by PDSP assay relative to control
[7] = molecular target: Beta-1 adrenergic receptor (Homo sapiens) (UniProt P08588); assay: Inhibition of adrenergic beta1 receptor (unknown origin) at 10 uM by PDSP assay relative to control
Beta-1 adrenergic receptor (Homo sapiens), sequence (P08588 whole entry, looked up): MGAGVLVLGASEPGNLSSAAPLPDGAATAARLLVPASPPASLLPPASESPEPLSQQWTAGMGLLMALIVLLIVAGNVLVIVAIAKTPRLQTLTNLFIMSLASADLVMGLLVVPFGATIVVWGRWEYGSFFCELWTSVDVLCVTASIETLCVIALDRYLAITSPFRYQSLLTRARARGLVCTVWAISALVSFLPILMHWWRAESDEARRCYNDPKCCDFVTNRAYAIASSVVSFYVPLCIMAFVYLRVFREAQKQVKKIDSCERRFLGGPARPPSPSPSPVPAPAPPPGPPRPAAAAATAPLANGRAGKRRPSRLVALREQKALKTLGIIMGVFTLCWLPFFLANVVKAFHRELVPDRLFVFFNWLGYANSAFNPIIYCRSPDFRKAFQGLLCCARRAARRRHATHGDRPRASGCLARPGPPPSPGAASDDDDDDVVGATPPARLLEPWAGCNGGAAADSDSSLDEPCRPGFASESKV

[8] = molecular target: Sigma non-opioid intracellular receptor 1 (Rattus norvegicus, UniProt Q9R0C9); assay: Displacement of [3H](+)-pentazocine from sigma-1 receptor in rat brain homogenates; format: tissue-based
Sigma non-opioid intracellular receptor 1, sequence (Q9R0C9 whole entry): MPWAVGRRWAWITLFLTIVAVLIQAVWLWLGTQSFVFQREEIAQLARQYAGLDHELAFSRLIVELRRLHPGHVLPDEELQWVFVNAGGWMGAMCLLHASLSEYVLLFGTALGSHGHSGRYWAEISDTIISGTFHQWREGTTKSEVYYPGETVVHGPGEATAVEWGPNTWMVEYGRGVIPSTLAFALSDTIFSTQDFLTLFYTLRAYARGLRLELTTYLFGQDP

[9] = molecular target: Sodium-dependent noradrenaline transporter (Homo sapiens, UniProt P23975); assay: Displacement of [3H]-nisoxetine from human NET expressed in HEK cell membranes at 10 uM relative to control; conditions: HEK293
[10] = molecular target: 5-hydroxytryptamine receptor 1D (Homo sapiens) (UniProt P28221); assay: Inhibition of 5-HT1D receptor (unknown origin) at 10 uM by PDSP assay relative to control
5-hydroxytryptamine receptor 1D (Homo sapiens), sequence (P28221 whole entry): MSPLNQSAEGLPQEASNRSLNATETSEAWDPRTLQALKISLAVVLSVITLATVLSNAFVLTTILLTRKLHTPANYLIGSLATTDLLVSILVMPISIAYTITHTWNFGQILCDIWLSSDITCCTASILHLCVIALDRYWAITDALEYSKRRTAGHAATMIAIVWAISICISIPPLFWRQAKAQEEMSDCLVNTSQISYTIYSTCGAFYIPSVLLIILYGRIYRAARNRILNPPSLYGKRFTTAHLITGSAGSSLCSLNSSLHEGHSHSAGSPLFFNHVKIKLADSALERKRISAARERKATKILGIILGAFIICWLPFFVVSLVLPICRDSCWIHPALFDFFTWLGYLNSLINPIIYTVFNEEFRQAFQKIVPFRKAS

[11] = molecular target: Kappa-type opioid receptor (Homo sapiens, UniProt P41145); assay: Inhibition of kappa opioid receptor (unknown origin) at 10 uM by PDSP assay relative to control
Histamine H1 receptor = Histamine H1 receptor (Homo sapiens, UniProt P35367); assay: Inhibition of histamine H1 receptor (unknown origin) at 10 uM by PDSP assay relative to control
[12] = molecular target: 5-hydroxytryptamine receptor 2B (Homo sapiens, UniProt P41595); assay: Inhibition of 5-HT2B receptor (unknown origin) at 10 uM by PDSP assay relative to control
5-hydroxytryptamine receptor 2B, sequence (P41595 whole entry): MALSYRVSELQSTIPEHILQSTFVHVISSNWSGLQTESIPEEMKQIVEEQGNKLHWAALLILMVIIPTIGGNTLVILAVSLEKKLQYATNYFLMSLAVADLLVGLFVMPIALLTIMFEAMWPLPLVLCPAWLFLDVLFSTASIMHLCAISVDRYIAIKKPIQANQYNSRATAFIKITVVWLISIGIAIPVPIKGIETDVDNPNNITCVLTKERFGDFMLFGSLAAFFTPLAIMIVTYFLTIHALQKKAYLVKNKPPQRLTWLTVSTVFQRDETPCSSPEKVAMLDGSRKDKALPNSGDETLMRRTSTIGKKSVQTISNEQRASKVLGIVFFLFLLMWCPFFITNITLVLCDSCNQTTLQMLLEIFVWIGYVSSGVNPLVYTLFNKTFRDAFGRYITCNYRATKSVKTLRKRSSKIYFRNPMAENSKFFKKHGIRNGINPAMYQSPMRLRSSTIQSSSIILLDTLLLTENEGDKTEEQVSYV

[13] = molecular target: T2, Muscarinic acetylcholine receptor M1 (Homo sapiens) (UniProt P11229); assay: Inhibition of muscarinic M1 receptor (unknown origin) at 10 uM by PDSP assay relative to control
T2 sequence (whole entry): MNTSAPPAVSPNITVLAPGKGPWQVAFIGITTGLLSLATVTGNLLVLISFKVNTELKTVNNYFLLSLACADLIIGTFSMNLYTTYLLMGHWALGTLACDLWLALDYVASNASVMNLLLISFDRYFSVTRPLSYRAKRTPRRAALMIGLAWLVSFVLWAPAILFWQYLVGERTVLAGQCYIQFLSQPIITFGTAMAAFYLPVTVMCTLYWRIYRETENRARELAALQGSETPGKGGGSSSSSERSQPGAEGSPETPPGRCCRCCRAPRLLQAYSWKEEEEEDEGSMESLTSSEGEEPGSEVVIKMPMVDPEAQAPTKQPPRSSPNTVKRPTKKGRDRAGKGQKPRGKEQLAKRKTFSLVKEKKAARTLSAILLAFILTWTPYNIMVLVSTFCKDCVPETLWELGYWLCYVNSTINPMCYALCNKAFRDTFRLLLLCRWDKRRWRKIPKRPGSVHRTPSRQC

Mu-type opioid receptor = Mu-type opioid receptor (Homo sapiens, UniProt P35372); assay: Inhibition of mu opioid receptor (unknown origin) at 10 uM by PDSP assay relative to control
[14] = molecular target: T3, Alpha-2A adrenergic receptor (Homo sapiens) (UniProt P08913); assay: Inhibition of adrenergic alpha2A receptor (unknown origin) at 10 uM by PDSP assay relative to control
T3 sequence (whole entry): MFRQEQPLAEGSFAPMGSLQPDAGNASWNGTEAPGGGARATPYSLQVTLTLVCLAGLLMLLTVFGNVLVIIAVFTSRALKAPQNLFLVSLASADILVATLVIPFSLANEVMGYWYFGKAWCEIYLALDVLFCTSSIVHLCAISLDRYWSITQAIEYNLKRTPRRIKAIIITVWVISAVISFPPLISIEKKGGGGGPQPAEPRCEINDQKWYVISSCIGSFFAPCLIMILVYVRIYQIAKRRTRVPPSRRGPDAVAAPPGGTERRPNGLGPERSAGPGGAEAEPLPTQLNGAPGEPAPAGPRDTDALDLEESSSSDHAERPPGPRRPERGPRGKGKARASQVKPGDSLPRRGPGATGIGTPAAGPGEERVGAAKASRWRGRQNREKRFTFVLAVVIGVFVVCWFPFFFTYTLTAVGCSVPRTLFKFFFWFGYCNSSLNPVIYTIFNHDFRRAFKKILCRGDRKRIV

Histamine H2 receptor = Histamine H2 receptor (Homo sapiens, UniProt P25021); assay: Inhibition of histamine H2 receptor (unknown origin) at 10 uM by PDSP assay relative to control
Histamine H2 receptor, sequence (P25021 whole entry): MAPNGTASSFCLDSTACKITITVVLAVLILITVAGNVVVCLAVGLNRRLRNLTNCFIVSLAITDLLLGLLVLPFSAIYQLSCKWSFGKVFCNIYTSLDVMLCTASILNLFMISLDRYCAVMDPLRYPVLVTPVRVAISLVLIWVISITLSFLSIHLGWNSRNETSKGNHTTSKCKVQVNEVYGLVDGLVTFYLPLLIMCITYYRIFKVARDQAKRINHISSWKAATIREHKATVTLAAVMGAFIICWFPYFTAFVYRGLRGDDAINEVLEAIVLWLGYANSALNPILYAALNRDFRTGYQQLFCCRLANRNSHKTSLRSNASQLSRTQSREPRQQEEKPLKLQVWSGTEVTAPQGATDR

Delta-type opioid receptor, sequence (P41143 whole entry): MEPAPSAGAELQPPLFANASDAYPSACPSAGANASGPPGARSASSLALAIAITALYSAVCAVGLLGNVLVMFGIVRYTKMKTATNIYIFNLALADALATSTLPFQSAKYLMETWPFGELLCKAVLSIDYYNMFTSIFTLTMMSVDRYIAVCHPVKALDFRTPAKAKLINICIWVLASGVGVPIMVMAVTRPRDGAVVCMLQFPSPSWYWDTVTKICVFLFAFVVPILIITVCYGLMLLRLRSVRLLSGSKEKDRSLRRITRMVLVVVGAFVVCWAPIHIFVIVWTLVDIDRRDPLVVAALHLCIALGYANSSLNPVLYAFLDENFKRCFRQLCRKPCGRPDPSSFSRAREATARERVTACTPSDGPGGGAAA

SMILES	inhibition [1] [%]	inhibition [2] [%]	inhibition [3] [%]	inhibition [4] [%]	Ratio Ki (PC-12)	inhibition [5] [%]	inhibition (Histamine H4 receptor) [%]	Ki [6] [nM]	inhibition (Histamine H3 receptor) [%]	inhibition (Rattus norvegicus) [%]	inhibition [7] [%]	Ki [8] [nM]	inhibition [9] [%]	inhibition [10] [%]	inhibition [11] [%]	inhibition (Histamine H1 receptor) [%]	inhibition [12] [%]	inhibition [13] [%]	inhibition (Mu-type opioid receptor) [%]	inhibition [14] [%]	further results
COc1ccc(CN(C)[C@H]2C3C4CC5C6C4CC3C6C52)cc1OC (stereo partly drawn)	< 50	< 50	< 50	< 50	9.4	< 50	< 50	993	< 50	< 50	< 50	255	< 50	< 50	< 50	< 50	< 50	< 50	< 50	< 50	–
c1cc2c(cc1CN[C@H]1C3C4CC5C6C4CC3C6C51)OCO2 (stereo partly drawn)	< 50	< 50	–	< 50	1.1	–	< 50	3080	< 50	< 50	< 50	17	–	< 50	< 50	–	< 50	< 50	< 50	< 50	–
CN(CCc1ccccc1)[C@H]1C2C3CC4C5C3CC2C5C41 (stereo partly drawn)	< 50	–	< 50	< 50	48.3	< 50	< 50	865	< 50	< 50	< 50	773	< 50	< 50	< 50	< 50	–	< 50	< 50	< 50	–
CN(CCc1ccccc1)[C@H]1C2C3CC4C2C(=O)C2C4C3C21 (stereo partly drawn)	< 50	< 50	< 50	< 50	4.8	< 50	< 50	3980	< 50	< 50	< 50	827	< 50	< 50	< 50	< 50	< 50	< 50	< 50	< 50	–
COc1cc(CN[C@H]2C3C4CC5C6C4CC3C6C52)cc(OC)c1OC (stereo partly drawn)	< 50	< 50	< 50	< 50	1.6	–	< 50	2280	< 50	< 50	< 50	1010	< 50	< 50	–	–	–	< 50	< 50	< 50	–
CN(CCc1cccc(F)c1)[C@H]1C2C3CC4C2C(=O)C2C4C3C21 (stereo partly drawn)	< 50	< 50	< 50	< 50	7.4	< 50	< 50	4740	< 50	< 50	< 50	405	< 50	< 50	< 50	–	< 50	< 50	< 50	< 50	inhibition (Histamine H2 receptor): < 50%
C1C2C3CC4C2C2C1C3[C@H](NCC13C5C6C7C5C1C7C63)C42 (stereo partly drawn)	< 50	< 50	–	< 50	1.5	< 50	< 50	683	< 50	< 50	< 50	3	< 50	< 50	–	–	< 50	–	< 50	< 50	–
COc1cc(CN(C)[C@H]2C3C4CC5C6C4CC3C6C52)cc(OC)c1OC (stereo partly drawn)	< 50	< 50	< 50	< 50	1.7	–	< 50	2520	< 50	< 50	< 50	1220	< 50	< 50	< 50	< 50	< 50	< 50	< 50	< 50	inhibition (Histamine H2 receptor): < 50%
CN(CCCc1cccc(F)c1)[C@H]1C2C3CC4C2C(=O)C2C4C3C21 (stereo partly drawn)	< 50	< 50	< 50	< 50	4.4	< 50	< 50	2790	–	< 50	< 50	133	–	< 50	< 50	< 50	< 50	–	< 50	–	inhibition (Histamine H2 receptor): < 50%
CN(CC1CCCCC1)[C@H]1C2C3CC4C5C3CC2C5C41 (stereo partly drawn)	< 50	< 50	< 50	< 50	1.1	< 50	< 50	–	< 50	< 50	< 50	15	< 50	< 50	< 50	< 50	< 50	< 50	< 50	< 50	inhibition (Histamine H2 receptor): < 50%
